Measurements as given in US5786358A, “Pyridopyrimidines as nonclassical antifolates” (The Trustees of Princeton University, priority 1996, dated 1998).
≈ marks a conversion by molar mass, not a printed value. Where a name gives a salt, the structure may show the parent alone.

Key:
CCRF-CEM cell line = assay: CCRF-CEM cell growth inhibition; assay type: cell-based; conditions: Homo sapiens, read-out: IC50, concentration inhibiting cell growth of a CCRF-CEM cell line by 50% as compared to control
Procedure: For N-(N-{5-[2-(2-amino-4-hydroxy-5,6,7,8-tetrahydropyrido[2,3-d]pyrimidin-6-yl)-ethyl]thien-2-ylcarbonyl}-L-γ-glutamyl)-D-aspartic acid, the IC50 is 0.100 μg/mL. For N-(N-{5-[2-(2-amino-4-hydroxy-5,6,7,8-tetrahydropyrido[2,3-d]pyrimidin-6-yl)ethyl]thien-2-ylcarbonyl}-L-γ-glutamyl)-D-glutamic acid 1-tert.-butyl-2,2-diethyl ester, the IC50 is 1.0 μg/mL. For N-{5-[2-(2-amino-4-hydroxy-5,6,7,8-tetrahydropyrido[2,3-d]pyrimidin-6-yl)- ethyl]thien-2-ylcarbonyl}-L-homocysteic acid α-methyl ester, the IC50 is 0.200 μg/mL. […] For 2-{5-[2-(2-amino-4-hydroxy-5,6,7,8-tetrahydropyrido[2,3-d]pyrimidin-6-yl)ethyl]thien-2-ylcarbonylamino}-3-(2H-tetrazol-5-yl)propanoic acid diammonium salt the IC50 is >100 μg/mL.

[1] = molecular target: T1, human monofunctional GARFT (Homo sapiens, UniProt P22102); assay: Ki against human monofunctional GARFT; assay type: biochemical; conditions: tight-binding analysis per Henderson; read-out: Ki inhibition constant against human monofunctional GARFT
T1 construct: human monofunctional GARFT
T1 sequence (P22102 810-1010 limits assumed): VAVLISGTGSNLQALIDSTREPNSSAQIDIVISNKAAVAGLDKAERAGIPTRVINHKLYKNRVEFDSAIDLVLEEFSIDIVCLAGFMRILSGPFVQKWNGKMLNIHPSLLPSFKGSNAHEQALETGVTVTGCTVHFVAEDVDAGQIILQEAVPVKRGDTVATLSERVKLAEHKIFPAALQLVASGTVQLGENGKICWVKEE

[2] = tested on: 6C3HED lymphosarcoma tumor; assay: 6C3HED lymphosarcoma tumor growth inhibition in C3H female mice; assay type: in vivo; conditions: daily IV bolus injection for 8 days
Procedure: N-(N-{5-[2-(2-amino-4-hydroxy-5,6,7,8-tetrahydropyrido[2,3 -d]pyrimidin-6-yl)ethyl]thien-2-ylcarbonyl}-L-γ-glutamyl)-D-asparticacid was evaluated against 6C3HED lymphosarcoma tumor in C3H female mice with the compound given daily, IV bolus injection, for 8 days. Compounds were administered in units of mg/kg of body weight. At the end of treatment, tumor weight was estimated using an electronic caliper interfaced to a microcomputer, and average tumor weight was calculated for each dosing level and a control group. Percentage inhibition of tumor growth was calculated as % inhibition of tumor growth according to the expression:
[1-(average tumor weight experimental group/average tumor weight control
Percentage inhibition was not calculated at a particular dosing level if mortality exceeded 20%. Cumulative dose was calculated by multiplying the daily dose by the number of days doses were administered.

Structure (SMILES) | IC50 (CCRF-CEM cell line) | Ki [1] | % inhibition of tumor growth ([2]; 100 mg/kg) | % inhibition of tumor growth ([2]; 200 mg/kg)
Nc1nc(O)c2c(n1)NCC(CCc1ccc(C(=O)N[C@@H](CCC(=O)N[C@H](CC(=O)O)C(=O)O)C(=O)O)cc1)C2 (stereo partly drawn) [Example 1, N-(N-{4-[2-(2-Amino-4-hydroxy-5,6,7,8-tetrahydropyrido[2,3-d]pyrimidin-6-yl)ethyl]benzoyl}-L-γ-glutamyl)-D-aspartic Acid] | 1.6 µg/mL (≈ 2.86 µM) |  |  | 
Nc1nc(O)c2c(n1)NCC(CCc1ccc(C(=O)NC(Cc3nn[nH]n3)C(=O)O)s1)C2 (stereo not shown) [Example 13] | > 100 µg/mL | 156 nM |  | 
Nc1nc(O)c2c(n1)NCC(CCc1ccc(C(=O)N[C@@H](CCS(=O)(=O)O)C(=O)O)s1)C2 (stereo partly drawn) [Example 9, N-{5-[2-(2-Amino-4-hydroxy-5,6,7,8-tetrahydropyrido[2.3-d]pyrimidin-6-yl)-ethyl]thien-2-ylcarbonyl}-L-homocysteic Acid] | 0.82 µg/mL (≈ 1.69 µM) |  |  | 
Nc1nc(O)c2c(n1)NCC(CCc1ccc(C(=O)N[C@@H](Cc3nn[nH]n3)C(=O)O)cc1)C2 (stereo partly shown) [Example 12, 2-{4-[2-(2-Amino-4-hydroxy-5,6,7,8-tetrahydropyrido[2.3-d]pyrimidin-6-yl)ethyl]benzoylamino}-3-(2H-tetrazol-5-yl)propanoic Acid Diammonium Salt] | 28.6 µg/mL |  |  | 
Nc1nc(O)c2c(n1)NCC(CCc1ccc(C(=O)N[C@@H](CCC(=O)N[C@H](CC(=O)O)C(=O)O)C(=O)O)s1)C2 (stereo partly shown) [Example 2] | 0.1 µg/mL (≈ 0.177 µM) | 0.244 nM | 100% | 100%
CCOC(=O)CC[C@@H](NC(=O)CC[C@H](NC(=O)c1ccc(CCC2CNc3nc(N)nc(O)c3C2)s1)C(=O)OC(C)(C)C)C(=O)OCC (stereo partly drawn) [N-(N-{5-[2-(2-amino-4-hydroxy-5,6,7,8-tetrahydropyrido[2,3-d]pyrimidin-6-yl)ethyl]thien-2-ylcarbonyl}-L-γ-glutamyl)-D-glutamic acid 1-tert.-butyl-2,2-diethyl ester] | 1 µg/mL (≈ 1.45 µM) | 7.7 nM |  | 
COC(=O)[C@H](CCS(=O)(=O)O)NC(=O)c1ccc(CCC2CNc3nc(N)nc(O)c3C2)s1 (stereo partly shown) [Example 8] | 0.2 µg/mL (≈ 0.4 µM) | 3.5 nM |  | 
